Source: PubChem BioAssay (NCI)
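Grown in 96-well plates, cells were treated for 48 hours with each compound at five concentrations. Insufficient inhibition: endpoint recorded as highest concentration tested. GI50: concentration for 50% inhibition of growth. The concentration for full growth arrest is given as TGI.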

Experiments:
Experiment in all cases: DTP human tumour cell line panel, 48 h
[1] = test system: OVCAR-8 ovarian
[2] = test system: ACHN renal
[3] = test system: EKVX NSCLC
[4] = test system: MOLT-4 leukemia
[5] = test system: RPMI-8226 leukemia
[6] = test system: UACC-62 melanoma
[7] = test system: OVCAR-4 ovarian
[8] = test system: K-562 leukemia
[9] = test system: HL-60(TB) leukemia
[10] = test system: SK-OV-3 ovarian

| Compound | GI50 [1] [µM] | TGI [1] [µM] | GI50 [2] [µM] | TGI [2] [µM] | GI50 [3] [µM] | TGI [3] [µM] | GI50 [4] [µM] | TGI [4] [µM] | GI50 [5] [µM] | TGI [5] [µM] | GI50 [6] [µM] | TGI [6] [µM] | GI50 [7] [µM] | TGI [7] [µM] | GI50 [8] [µM] | TGI [8] [µM] | GI50 [9] [µM] | TGI [9] [µM] | GI50 [10] [µM] | TGI [10] [µM] |
| --- | --- | --- | --- | --- | --- | --- | --- | --- | --- | --- | --- | --- | --- | --- | --- | --- | --- | --- | --- | --- |
| COc1cc(C(=O)/C=C/c2c(-c3ccc(F)cc3)nc3sc(C)cn23)cc(OC)c1OC | 4.94 | > 100 | 5.83 | > 100 | 2.29 | > 100 | 1.62 | 5.13 | 2.32 | > 100 | 2.91 | > 100 | 2.28 | > 100 | 5.46 | > 100 | 2.87 | > 100 | 6.12 | > 100 |
| CS(=O)(=O)OCCN1CCN(C(=O)c2cccc3c(Nc4ccc(S(N)(=O)=O)cc4)c4ccccc4nc23)CC1 |  | > 100 |  | > 100 |  | > 100 |  | > 100 |  | > 66.1 |  | > 100 |  | > 100 |  | > 81.1 |  | > 100 |  | > 100 |
| CCN(CC)c1ccc(N=C2C=CC(=O)c3ncccc32)c(C)c1 |  | 10.5 |  | 12.7 |  | 30.4 |  | 6.14 |  | > 100 |  | 16.8 |  | 4.93 |  | 5.95 |  | 5.15 |  | 34.3 |
| CC(C)COC(=O)N1N=NC2C3OC(CC3=O)C21 (stereo not drawn) |  | > 100 |  | > 100 |  | > 100 |  | > 100 |  | > 100 |  | > 100 |  | > 100 |  | > 100 |  | > 100 |  | > 100 |
| Cn1ccnc1C(c1nccn1C)C(C)(C)[N+](=O)[O-] |  | > 100 |  | > 100 |  | > 100 |  | > 100 |  | > 100 |  | 56.6 |  | > 100 |  | > 100 |  | > 100 |  | > 100 |
| O=C(Nc1ncc(Cc2ccccc2)s1)c1ccc2c(c1)OCCCO2 | 2.01 | > 100 | 0.644 | > 100 | 1.05 | > 100 | 0.478 | > 100 | 0.428 |  | 0.302 | > 100 | 5.22 | > 100 | 0.254 | > 100 | 0.33 | > 51.6 | 3.17 | > 100 |
| CCN(CC)c1ccc(N=C2C=C(C(=O)Nc3ccc(S(C)(=O)=O)cc3)C(=O)c3ccccc32)c(C)c1 | > 100 | > 100 | > 100 | > 100 | 5.52 | > 100 | > 100 | > 100 | 4.96 | > 100 | 0.734 | > 100 | 8.91 | > 100 | 15.8 | > 100 | 14 | > 100 | 9.45 | > 100 |
| O=C(Nc1ccc(Cl)cc1)c1cc2c(cc1O)[nH]c1ccccc12 | 3.25 | 12.9 | 3.11 | 11.1 | 2.16 | 7.89 | 4.18 | 47.4 | 2.71 | 8.45 | 2.49 | 8.89 | 4.66 | 17.6 | 4.28 | > 100 | 4.43 | > 100 | 2.32 | 6.51 |
| O=C1CCC2CCc3cccc4oc1c2c34 (stereo not drawn) |  | > 100 |  | > 100 |  | > 100 |  | > 100 |  | > 100 |  | > 100 |  | > 100 |  | > 100 |  | > 100 |  | > 100 |
| NC(N)=N/N=C/c1c(-c2cccs2)nc2sccn12 | 24.1 | 49 | 13.2 | 26.5 | 6.32 | 19.1 | 8.48 | 36.3 | 12.6 | > 100 | 14.8 | 28.3 | 5.89 | 20 | 6.49 | 21.5 | 12.8 | 39 | 13 | 25.7 |
| COc1ccccc1/C=C1\CCC(CNc2ccc(Cl)cc2)C1=O (stereo not drawn) |  | 20.7 |  | 14.6 |  | 20.2 |  | 27.4 |  | 6.72 |  | 3.48 |  | 28.2 |  | 19 |  | 13.9 |  | 16.8 |
| CCN(CC)CCOc1ccc(Nc2ncc3cc(-c4c(Cl)cccc4Cl)c(=O)n(CCOC)c3n2)cc1 | 0.2 | 3.95 | 0.0205 | 5.72 | 0.796 | 7.38 | 0.781 | 5.41 | 0.921 | 3.15 | 0.206 | 7.04 | 0.946 | 6.99 | 0.005 | 18.2 | 0.496 | 2.06 | 0.064 | 7.35 |
| CCc1ccc(-c2ccc(=O)n(-c3ccc(S(N)(=O)=O)cc3)n2)cc1 | 11 | > 100 | > 32.4 | > 100 | 5.65 | > 100 | 0.884 | > 90 | 0.759 | 7.33 | 0.84 | > 100 | > 100 | > 100 | 0.297 | > 46.6 | 0.365 | 4.18 | 4.44 | > 100 |
| OCc1cccc(-c2ccc3ncc(-c4nc(NC5CC5)ncc4F)n3c2)c1 | 0.301 | > 100 | 0.134 | 1.24 | 0.296 | 0.946 | 0.266 |  | 0.22 | 0.788 | 0.248 | 0.698 | 0.342 | 1.77 | 0.434 | > 100 | 0.243 | 0.708 | 0.448 | 7.06 |
| CCON=C1C(C)(C)C(C)(C)C(C)(C)C1(C)C |  | > 100 |  | > 100 |  | > 100 |  | > 100 |  | > 100 |  | > 100 |  | > 100 |  | > 100 |  | > 100 |  | > 100 |
| O=c1[nH]cnc2c1nnn2C1OC(CO)C(O)C1O (stereo not drawn) | 0.683 | > 100 | 1.04 | > 100 | 60.4 | > 100 | 2.44 | > 100 | 1.33 | 21.5 | 4.65 | 42.8 | 0.416 | 37.6 | 3.97 | > 100 | 0.617 | > 43.9 | 0.375 | > 100 |
| OCCCCC#Cc1ccccc1C#Cc1ccccc1F | 20.8 | 47.9 | 25.5 | 53.6 | 29.4 | 94.4 | 21.2 | 49.8 | 30.7 | 70 | 16.5 | 32.6 | > 100 | > 100 | 23.2 | 47.2 | 22.2 | 44.9 | 23.8 | 58.4 |
| Oc1ccc2occ3c2c1CCC3 |  | > 100 |  | > 100 |  | > 100 |  | > 100 |  | > 100 |  | > 100 |  | > 100 |  | > 100 |  | > 100 |  | > 100 |
| C=CCC12CCC(=O)C=C1CCC1(C2)OCCO1 (stereo not drawn) |  | > 100 |  | > 100 |  | > 100 |  | > 100 |  | > 100 |  | > 100 |  | > 100 |  | > 100 |  | > 100 |  | > 100 |
| Cc1ccc(C(=O)O/N=C2/CCCCC2CN(C)C)cc1 (stereo not drawn) |  | > 100 |  | > 100 |  | > 100 |  | > 100 |  | > 100 |  | > 100 |  | > 100 |  | > 100 |  | > 100 |  | > 100 |
| CC1=C(SCc2ccccc2)C(=O)c2ccccc2C1=O |  | 38.8 |  | 27.2 |  | 44 |  | 4.51 |  | 7.36 |  | 31.8 |  | 27.2 |  | > 100 |  | > 100 |  | 44.6 |
